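Exposure lasted 48 hours, with cells grown in 96-well plates and compounds tested at five concentrations. TGI is the concentration that stops growth completely.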
Key:
Experiment in all cases: NCI-60 cell line screen, 48 h
786-0 renal = system: 786-0 renal
A549 NSCLC = system: A549 NSCLC
ACHN renal = system: ACHN renal
CAKI-1 renal = system: CAKI-1 renal
CCRF-CEM leukemia = system: CCRF-CEM leukemia
COLO 205 colon = system: COLO 205 colon
DLD-1 colon = system: DLD-1 colon
DMS 114 small cell lung = system: DMS 114 small cell lung
DMS 273 small cell lung = system: DMS 273 small cell lung
EKVX NSCLC = system: EKVX NSCLC
HCC-2998 colon = system: HCC-2998 colon
HCT-116 colon = system: HCT-116 colon
HCT-15 colon = system: HCT-15 colon
HL-60(TB) leukemia = system: HL-60(TB) leukemia
HOP-62 NSCLC = system: HOP-62 NSCLC
HOP-92 NSCLC = system: HOP-92 NSCLC
K-562 leukemia = system: K-562 leukemia
KM12 colon = system: KM12 colon
KM20L2 colon = system: KM20L2 colon
LOX IMVI melanoma = system: LOX IMVI melanoma
LXFL 529 NSCLC = system: LXFL 529 NSCLC
M14 melanoma = system: M14 melanoma
M19-MEL melanoma = system: M19-MEL melanoma
MALME-3M melanoma = system: MALME-3M melanoma
MOLT-4 leukemia = system: MOLT-4 leukemia
NCI-H226 lung = system: NCI-H226 lung
NCI-H23 lung = system: NCI-H23 lung
NCI-H460 lung = system: NCI-H460 lung
NCI-H522 lung = system: NCI-H522 lung
OVCAR-3 ovarian = system: OVCAR-3 ovarian
OVCAR-4 ovarian = system: OVCAR-4 ovarian
OVCAR-5 ovarian = system: OVCAR-5 ovarian
OVCAR-8 ovarian = system: OVCAR-8 ovarian
RPMI-8226 leukemia = system: RPMI-8226 leukemia
SF-268 CNS = system: SF-268 CNS
SF-539 CNS = system: SF-539 CNS
SK-MEL-2 melanoma = system: SK-MEL-2 melanoma
SK-MEL-28 melanoma = system: SK-MEL-28 melanoma
SK-MEL-5 melanoma = system: SK-MEL-5 melanoma
SN12C renal = system: SN12C renal
SNB-19 CNS = system: SNB-19 CNS
SNB-75 CNS = system: SNB-75 CNS
SNB-78 CNS = system: SNB-78 CNS
SR leukemia = system: SR leukemia
SW-620 colon = system: SW-620 colon
TK-10 renal = system: TK-10 renal
U251 CNS = system: U251 CNS
UACC-257 melanoma = system: UACC-257 melanoma
UACC-62 melanoma = system: UACC-62 melanoma
UO-31 renal = system: UO-31 renal
XF 498 CNS = system: XF 498 CNS
HOP-18 NSCLC = system: HOP-18 NSCLC
HT29 colon = system: HT29 colon
IGROV1 ovarian = system: IGROV1 ovarian
RXF 393 renal = system: RXF 393 renal
SF-295 CNS = system: SF-295 CNS
SK-OV-3 ovarian = system: SK-OV-3 ovarian
A498 renal = system: A498 renal
RXF-631 renal = system: RXF-631 renal

Measured: TGI

CN(C)P(=O)(/C(N)=N/Nc1ccc([N+](=O)[O-])cc1)N(C)C
not listed: HOP-18 NSCLC | HT29 colon | IGROV1 ovarian | RXF 393 renal | SF-295 CNS | SK-OV-3 ovarian | A498 renal | RXF-631 renal
> 100 µM: all other assays above

Cc1ccc(S(=O)(=O)n2c(-c3ccccc3)c(-c3ccccc3)c3ccccc32)cc1
not listed: CAKI-1 renal | SNB-78 CNS | A498 renal | RXF-631 renal
> 100 µM: all other assays above

CCOC(=O)NC(=O)c1cn(CCOCCOC(=O)NCCCCCCNC(=O)OCCOCCn2cc(C(=O)NC(=O)OCC)c(=O)[nH]c2=O)c(=O)[nH]c1=O
not listed: CAKI-1 renal | CCRF-CEM leukemia | MOLT-4 leukemia | NCI-H226 lung | XF 498 CNS
> 100 µM: all other assays above

From PubChem BioAssay (NCI)
